How the values were obtained:
Assay type in all cases: physicochemical
[1] = Photochromic properties of photochromic cured product prepared by kneading method; settings: 0.106 mmol per 100 g monomer; for A23: 1 mm cured product, 23°C color optical density ε(300)-ε(0); for Maximum absorption wavelength: 1 mm thiourethane cured product, after color development
Protocol: (§1) • [1] Maximum Absorption Wavelength (λmax): The maximum absorption wavelength after color development, measured using a spectrophotometer (instantaneous multichannel photodetector MCPD3000) manufactured by Otsuka Electronics Co., Ltd. was used as an indicator for the color tone during the color development. • [2] 23°C Color Optical Density (A23): A difference between an absorbancy measured after light irradiation at 23°C for 300 seconds {ε(300)} and an absorbancy without light irradiation ε(0) at the maximum absorption wavelength was used as an indicator for the color optical density. […] 23°C color fading half-life [τ1/2 (sec.)]: A time required for the absorbancy of the sample at the maximum absorption wavelength to decrease to 1/2 of {ε(300)-ε(0)} when the light irradiation was terminated after the light irradiation at 23°C for 300 seconds, was used as an indicator for the color fading speed. The shorter this time, the higher the color fading speed. • [4] Residual rate (A120/A0×100): The obtained photochromic plastic lens was subjected to accelerated deterioration using a xenon weather meter X25 manufactured by Suga Test Instruments Co., Ltd. for 120 hours. Subsequently, the color optical density was evaluated before and after the test, then a color optical density before the test (A0) and a color optical density after the test (A120) were measured, and a ratio (A120/A0) was defined as a residual rate. The residual rate was used as an indicator for a color developing durability. The higher the residual rate, the higher the color developing durability. The results of Examples 26, 50, and Comparative Examples 1 to 8 are summarized in Table 1, and the results of Examples 27 to 49 are summarized in Tables 2 and 3.
(§2) First, the photochromic compound obtained in Example 1, additives, and a polymerizable compound were mixed to obtain a curable composition.
(§3) As the polymerizable compound, a combination of the following polymerizable monomers was used. • 1,3-bis(isocyanatomethyl)cyclohexane: 36.7 parts by mass Pentaerythritol tetrakis(3-mercaptopropionate): 39.4 parts by mass • Polyoxyethylene polyoxypropylene lauryl ether (Wonder Surf 140 manufactured by Aoki Oil Industrial Co., Ltd.): 17.4 parts by mass • 1-decanethiol: 2.8 parts by mass • RX-1 adjusted according to the method described in Patent Document 13: 3.8 parts by mass
(§4) Note that the photochromic compound was added to the curable composition so that the amount of the photochromic compound was 0.106 mmol based on 100 g of the total amount of the polymerizable monomer. The following additives were used: Dimethyltin dichloride • : 0.05 part by mass • Irganox 245: 0.1 part by mass • 2-ethylhexyl 4-methoxycinnamate: 0.6 part by mass
(§5) The prepared curable composition was thoroughly defoamed, then injected into a glass mold having a 1 mm gap, and polymerized by cast polymerization. The polymerization was carried out in an air furnace while gradually raising the temperature from 27°C to 120°C over 18 hours. After the polymerization, the cured product was removed from the glass mold to obtain a photochromic cured product having a thickness of 1 mm. The obtained photochromic cured product was evaluated in the same manner as in Example 26.
(§6) (Examples 85 to 99, and Comparative Example 14 to 18) Photochromic cured products were prepared using photochromic compounds presented in Tables 6 and 7 in the same manner as in Example 84. The results of Examples 84 and 85 and Comparative Examples 14 to 18 are summarized in Table 6, and the results of Examples 86 to 99 are summarized in Table 7.

[2] = Accelerated deterioration (xenon weather meter X25, 120 hours) of photochromic laminate prepared by coating method; settings: 0.25 mmol per 100 g monomers, A120/A0×100 after 120 hours xenon weather meter
In short: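 Photochromic compound at 0.25 mmol per 100 g of methacrylate monomers, spin-coated as a 40 µm layer on a primed 1.60-index thiourethane lens, then light-cured and heated at 110°C for 1 h. Color optical density at λmax (23°C, 300 s irradiation) measured before (A0) and after 120 h xenon exposure (A120). Residual rate = A120/A0×100.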

[3] = Accelerated deterioration (xenon weather meter X25, 120 hours) of photochromic cured product prepared by kneading method; settings: 1 mm cured product, 0.106 mmol per 100 g monomer, A120/A0×100 after 120 hours xenon weather meter
Protocol: as §1, §2, §3, §4, §5, §6

| SMILES | A23 [1] | Maximum absorption wavelength [1] | Residual rate [2] | Residual rate [3] | further results |
| --- | --- | --- | --- | --- | --- |
| CCCC1(CCC)c2ccccc2-c2c1c1c(c3cc(OC)c(-c4ccc(OC)cc4OC)cc23)OC(c2ccc(C)cc2)(c2ccc(N(C)c3ccccc3)cc2)C=C1 (stereo not drawn) [Example 19] | 0.87 - | 496 nm | 64% | 73% | A23 ([1]; listed as Formula (80)): 1.15 -; Maximum absorption wavelength ([1]; listed as Formula (80)): 610 nm |
| CCCC1(CCC)c2cc(OC(F)(F)F)ccc2-c2c1c1c(c3cc(OC)c(Sc4c(C)cccc4C)cc23)OC(c2ccc(N(C)c3ccccc3)cc2)(c2ccc(OC)c(OC)c2)C=C1 (stereo not drawn) [Example 57] | 0.86 - | 496 nm | 65% | 72% | A23 ([1]; listed as Formula (110)): 0.88 -; Maximum absorption wavelength ([1]; listed as Formula (110)): 625 nm |
| COCCN(c1ccccc1)c1ccc(C2(c3ccc4c(c3)OCCO4)C=Cc3c4c(c5cc6c(cc5c3O2)SC(C)(C)O6)-c2ccccc2C42CCC3(CCCCC3)CC2)cc1 (stereo not drawn) [Example 14] | 0.59 - | 496 nm | 63% | 71% | A23 ([1]; listed as Formula (71)): 0.65 -; Maximum absorption wavelength ([1]; listed as Formula (71)): 590 nm; Residual rate ([3]; listed as Formula (71)): 70% |
| CCCc1ccc(C2(c3ccc(N(C)c4ccccc4)cc3)C=Cc3c4c(c5cc(Sc6c(C)cccc6C)c(OC)cc5c3O2)-c2ccccc2C42CC(C)(C)CC(C)(C)C2)cc1 (stereo not drawn) [Example 5] | 0.56 - | 511 nm | 68% | 75% | A23 ([1]; listed as Formula (51)): 0.69 -; Maximum absorption wavelength ([1]; listed as Formula (51)): 598 nm |
| CCCC1(CCC)c2ccccc2-c2c1c1c(c3cc(OC)c(-c4ccc(OC)cc4OC)cc23)OC(c2ccc(N(C)c3ccccc3)cc2)(c2ccc(OC)c(F)c2)C=C1 (stereo not drawn) [Example 7] | 0.75 - | 499 nm | 61% | 68% | A23 ([1]; listed as Formula (55)): 0.99 -; Maximum absorption wavelength ([1]; listed as Formula (55)): 610 nm |
| CCCC1(CCC)c2cc(OC)ccc2-c2c1c1c(c3cc(OC)ccc23)OC(c2ccc(OC)cc2)(c2ccc(N(C)c3ccccc3)cc2)C=C1 (stereo not drawn) [Example 3] | 0.59 - | 472 nm | 55% | 61% | A23 ([1]; listed as Formula (46)): 1.16 -; Maximum absorption wavelength ([1]; listed as Formula (46)): 619 nm |
| CCCCN(c1ccccc1)c1ccc(C2(c3ccc(C)cc3)C=Cc3c4c(c5cc(N6CCOCC6)c(OC)cc5c3O2)-c2ccccc2C4(CC)CC)cc1 (stereo not drawn) [Example 10] | 1.41 - | 519 nm | 60% | 68% | A23 ([1]; listed as Formula (62)): 1.09 -; Maximum absorption wavelength ([1]; listed as Formula (62)): 600 nm; Residual rate ([2]; listed as Formula (62)): 64%; Residual rate ([3]; listed as Formula (62)): 70% |
| COCCOCCOCCOCCC1(CCOCCOCCOCCOC)c2cc(C(F)(F)F)ccc2-c2c1c1c(c3cc(OC)c(OC)cc23)OC(c2ccc(OC)cc2)(c2ccc(N(C)c3ccccc3)cc2)C=C1 (stereo not drawn) [Example 51] | 0.46 - | 486 nm | 60% | 68% | A23 ([1]; listed as Formula (89)): 0.45 -; Maximum absorption wavelength ([1]; listed as Formula (89)): 612 nm |
